According to ChEMBL document CHEMBL3734667 (Bioorg Med Chem, 2015):
Calls of active or inactive are those of the source. No cut-off for these calls is given here.

Legend:
[1] = Cytotoxicity against human MT4 cells assessed as cell viability after 96 hrs by MTT assay; format: cell-based
[2] = Cytotoxicity against MDBK cells assessed as cell viability after 48 to 96 hrs by MTT assay; format: cell-based, Bos taurus; details: cattle
[3] = Cytotoxicity against BHK cells assessed as cell viability after 48 to 96 hrs by MTT assay; format: cell-based, Mesocricetus auratus; details: hamster
[4] = Cytotoxicity against african green monkey Vero 76 cells assessed as cell viability after 48 to 96 hrs by crystal violet staining method; format: cell-based; details: chlorocebus sabaeus
[5] = tested on: Yellow fever virus; assay: Antiviral activity against YFV infected in BHK-21 cells assessed as inhibition of virus-induced cytopathogenicity after 3 to 4 days by MTT assay; format: functional, organism-based
[6] = tested on: Coxsackievirus B5; assay: Antiviral activity against human CVB5 infected in african green monkey Vero76 cells assessed as inhibition of virus-induced cytopathogenicity after 3 days by plaque reduction assay; format: functional, organism-based; details: Enterovirus B, Vero 76, 72 h
[7] = tested on: Human orthopneumovirus; assay: Antiviral activity against human RSV infected in african green monkey Vero76 cells assessed as inhibition of virus-induced cytopathogenicity after 5 days by plaque reduction assay; format: functional, organism-based; details: human respiratory syncytial virus, Vero 76, 120 h
[8] = tested on: Poliovirus 1; assay: Antiviral activity against Human poliovirus 1 Sabin infected in african green monkey Vero76 cells assessed as inhibition of virus-induced cytopathogenicity by plaque reduction assay; format: functional, organism-based; details: Enterovirus C, Vero 76
[9] = Selectivity index, ratio of CC50 for MDBK cells to EC50 for BVDV; design: species or system Bovine viral diarrhea virus 1
[10] = Selectivity index, ratio of CC50 for BHK-21 cells to EC50 for YFV; design: species or system Yellow fever virus
[11] = Selectivity index, ratio of CC50 for african green monkey Vero76 cells to EC50 for human CVB5; design: species or system Coxsackievirus B5, Vero 76
[12] = tested on: dengue virus type 2; assay: Antiviral activity against DENV-2 infected in BHK-21 cells assessed as inhibition of virus-induced cytopathogenicity after 3 to 4 days by MTT assay; format: functional, organism-based
[13] = tested on: West Nile virus; assay: Antiviral activity against WNV infected in BHK-21 cells assessed as inhibition of virus-induced cytopathogenicity after 3 to 4 days by MTT assay; format: functional, organism-based
[14] = tested on: Human alphaherpesvirus 1; assay: Antiviral activity against HSV1; format: functional, organism-based
[15] = tested on: Vesicular stomatitis virus; assay: Antiviral activity against VSV; format: functional, organism-based
[16] = tested on: Vaccinia virus; assay: Antiviral activity against Vaccinia virus; format: functional, organism-based; details: Orthopoxvirus vaccinia
[17] = tested on: Bovine viral diarrhea virus 1; assay: Antiviral activity against BVDV infected in MDBK cells assessed as inhibition of virus-induced cytopathogenicity after 3 to 4 days by MTT assay; format: functional, organism-based; details: Bovine viral diarrhea virus isolates and strains
[18] = tested on: Mammalian orthoreovirus 1; assay: Antiviral activity against Reo-1 virus infected in BHK-21 cells assessed as inhibition of virus-induced cytopathogenicity after 3 to 4 days by MTT assay; format: functional, cell-based; details: Mammalian orthoreovirus 1, BHK-21
[19] = Selectivity index, ratio of CC50 for african green monkey Vero76 cells to EC50 for human RSV; design: species or system human respiratory syncytial virus, Vero 76
[20] = tested on: Human immunodeficiency virus 1; assay: Antiviral activity against HIV-1 infected in MT4 cells assessed as inhibition of virus-induced cytopathogenicity after 4 days by MTT assay; format: functional, organism-based; details: Human immunodeficiency virus 1, MT4, 96 h
[21] = Selectivity index, ratio of CC50 for african green monkey Vero76 cells to EC50 for human Sb-1; design: species or system Human poliovirus 1 strain Sabin, Vero 76
[22] = tested on: Influenza B virus; assay: Antiviral activity against Influenza B virus; format: functional
[23] = target: T1, Peroxisome proliferator-activated receptor alpha (Homo sapiens) (UniProt Q07869); assay: Agonist activity at human PPAR alpha in human HepG2 cells after 20 hrs by luciferase reporter assay; format: cell-based
T1 sequence (whole entry): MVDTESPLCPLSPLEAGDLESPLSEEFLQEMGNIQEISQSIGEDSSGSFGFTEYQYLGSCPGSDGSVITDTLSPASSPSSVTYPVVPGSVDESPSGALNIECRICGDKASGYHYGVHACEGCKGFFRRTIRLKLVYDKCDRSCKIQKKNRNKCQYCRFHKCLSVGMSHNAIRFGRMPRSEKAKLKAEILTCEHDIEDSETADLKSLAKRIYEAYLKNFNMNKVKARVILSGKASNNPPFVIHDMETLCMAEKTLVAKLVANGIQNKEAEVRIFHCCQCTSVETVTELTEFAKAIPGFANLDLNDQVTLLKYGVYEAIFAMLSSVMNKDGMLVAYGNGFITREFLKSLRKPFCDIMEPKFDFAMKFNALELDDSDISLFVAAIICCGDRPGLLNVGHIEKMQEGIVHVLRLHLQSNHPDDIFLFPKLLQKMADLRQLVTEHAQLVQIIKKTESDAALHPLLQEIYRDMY

[24] = target: T2, Peroxisome proliferator-activated receptor gamma (Homo sapiens) (UniProt P37231); assay: Agonist activity at human PPAR gamma in human HepG2 cells after 20 hrs by luciferase reporter assay; format: cell-based
T2 sequence (whole entry): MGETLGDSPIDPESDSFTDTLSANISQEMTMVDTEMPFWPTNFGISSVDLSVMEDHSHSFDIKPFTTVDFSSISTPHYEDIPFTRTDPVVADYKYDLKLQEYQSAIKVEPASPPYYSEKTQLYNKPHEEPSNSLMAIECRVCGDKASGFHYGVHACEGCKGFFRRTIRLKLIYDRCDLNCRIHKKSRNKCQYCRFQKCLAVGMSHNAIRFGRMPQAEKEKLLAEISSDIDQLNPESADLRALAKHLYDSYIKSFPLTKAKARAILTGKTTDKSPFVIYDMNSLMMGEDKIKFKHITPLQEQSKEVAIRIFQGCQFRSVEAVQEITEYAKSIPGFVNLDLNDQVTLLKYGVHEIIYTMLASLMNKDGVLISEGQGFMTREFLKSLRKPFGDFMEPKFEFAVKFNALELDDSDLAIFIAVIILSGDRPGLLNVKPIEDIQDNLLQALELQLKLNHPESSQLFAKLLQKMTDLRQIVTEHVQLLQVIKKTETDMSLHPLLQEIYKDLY

SMILES	CC50 at 96 h [1]	CC50 [2]	CC50 [3]	CC50 [4]	EC50 [5]	EC50 [6]	EC50 [7]	EC50 [8]	Ratio CC50/EC50 [9]	Ratio CC50/EC50 [11]	EC50 [14]	EC50 [15]	EC50 [16]	EC50 [17]	EC50 [18]	Ratio CC50/EC50 [19]	EC50 [20]	Ratio CC50/EC50 [21]	further results
C[C@@]1(O)[C@H](O)[C@@H](CO)O[C@H]1n1cnc2c(=O)[nH]c(N)nc21 [2'-B-METHYL-GUANOSINE]	> 100 µM	> 100 µM	> 60 µM	> 100 µM	1.5 µM	20 µM	> 100 µM	> 100 µM	>58.8	>5	> 100 µM	> 100 µM	> 100 µM	–	–	–	–	–	Ratio CC50/EC50 [10]: >66.7; EC50 [12]: 1.2 µM; EC50 [13]: 0.7 µM
FC(F)(F)c1ccc2c(c1)nnn2C[C@@H]1CCCN2CCCC[C@H]12	> 100 µM	> 100 µM	> 100 µM	> 100 µM	27 µM	38 µM	90 µM	> 100 µM	–	>2.63	> 100 µM	> 100 µM	> 100 µM	> 100 µM	> 100 µM	>1.11	> 100 µM	–	Ratio CC50/EC50 [10]: >3.7
Cc1cc(CCCOc2c(C)cc(-c3noc(C(F)(F)F)n3)cc2C)on1 [PLECONARIL]	–	–	–	70 µM	–	0.008 µM	–	2 µM	–	–	–	–	–	–	–	–	–	35	Ratio CC50/EC50 [10]: 8750
Oc1ccc2nn[nH]c2c1/N=N/c1ccc(Cl)cc1	–	–	–	–	–	–	–	–	–	–	–	–	–	–	–	–	–	–	EC75 [22]: 4.3 µM
C#C[C@@]1(O)[C@H](O)[C@@H](CO)O[C@H]1n1ccc(N)nc1=O [2'-ETHYNYL-D-CYTIDINE]	> 100 µM	> 100 µM	> 100 µM	> 100 µM	> 100 µM	30 µM	> 100 µM	25 µM	>2.6	>3.3	> 100 µM	> 100 µM	> 100 µM	–	> 100 µM	–	–	>4	–
Clc1cc2nnn(C3CCCCO3)c2cc1Cl (stereo not given)	> 100 µM	> 100 µM	> 100 µM	≥ 100 µM	> 100 µM	–	–	60 µM	–	–	> 100 µM	> 100 µM	–	> 100 µM	> 100 µM	–	> 100 µM	1.67	–
COc1ccc(-n2nc3ccc(C(F)(F)F)cc3n2)cc1	> 100 µM	> 100 µM	> 100 µM	> 100 µM	> 100 µM	80 µM	> 100 µM	40 µM	–	>1.25	> 100 µM	> 100 µM	> 100 µM	> 100 µM	> 100 µM	–	> 100 µM	>2.5	–
CC(C)(CCCOc1ccc(-n2nc3ccccc3n2)cc1)C(=O)O	47 µM	61 µM	31 µM	25 µM	> 100 µM	4 µM	5 µM	> 100 µM	2.26	6.25	–	> 100 µM	> 100 µM	27 µM	–	5	> 100 µM	–	Activity [23]: inactive; Activity [24]: inactive
CC(C)(COc1ccc(-n2nc3ccccc3n2)cc1)C(=O)O	> 100 µM	> 100 µM	> 100 µM	70 µM	> 100 µM	> 100 µM	25 µM	> 100 µM	>2.27	–	–	> 100 µM	> 100 µM	44 µM	–	2.8	> 100 µM	–	Activity [23]: inactive; Activity [24]: inactive
Oc1ccc(-n2nc3ccccc3n2)cc1	> 100 µM	≥ 100 µM	83 µM	90 µM	≥ 83 µM	> 100 µM	–	7 µM	>5.88	–	–	> 100 µM	> 100 µM	17 µM	–	–	> 100 µM	12.86	–
COc1ccc2nn(-c3ccc(OCC(C)(C)C(=O)O)cc3)nc2c1	≥ 100 µM	> 100 µM	100 µM	65 µM	> 100 µM	24 µM	11 µM	> 100 µM	>1.51	2.71	–	> 100 µM	> 100 µM	66 µM	–	5.91	> 100 µM	–	Activity [23]: inactive; Activity [24]: inactive
